Columns and labels:
Format in all cases: biochemical
[1] = target: T1, CD13 (Homo sapiens, UniProt P15144); assay: Measurement of human plasma sample using CD13 probe in microdevice; details: 50 μM probe, 1000 fold dilution plasma; for Fluorescence intensity of human plasma samples, patient with pancreatic cancer compared with healthy subject (CD13 probe): microdevice; for AUC of ROC curve for the number of wells in which CD13 is considered to be enclosed: plasma of 30 patients with pancreatic cancer vs 30 healthy subjects, 37° C. 4 hours, wells >= Average+3SD of background fluorescence
T1 construct: human plasma samples collected from 30 patients with pancreatic cancer and 30 healthy subjects; from tissue; host or cells: human plasma (pancreatic cancer patients and healthy subjects)
Protocol: 1. Arg-PMAC as a CD13 probe was diluted with an assay buffer to 100 μM. The composition of the buffer is 100 mM HEPES-NaOH (pH 7.4), 1 mM MgCl2, 1 mM DTT, 3 mM TritonX-100.
(§1) 2. Next, human plasma samples collected from 30 patients with pancreatic cancer and 30 healthy subjects were diluted 500 times with the above assay buffer, and mixed in an equal amount with the diluted solution of the CD13 probe. At this time, the final concentrations are 50 μM for the CD13 probe and 1000 fold dilution for the human plasma sample.
(§2) 3. The mixed solution was then added to a microdevice, followed by the addition of sealing oil to enclose the solution in each well.
4. The microdevice in which the solution was enclosed was incubated at 37° C. for 4 hours, and then the fluorescence intensity of each well was measured with a fluorescence microscope.

[2] = target: T2, DPP4 (Homo sapiens, UniProt P27487); assay: Measurement of human plasma sample using DPP4 probe in microdevice; details: 50 μM probe, 1000 fold dilution plasma
T2 construct: human plasma samples collected from 30 patients with pancreatic cancer and 30 healthy subjects; from tissue; host or cells: human plasma (pancreatic cancer patients and healthy subjects)
Protocol: 1. Glu-Pro-PMAC as a DPP4 probe was diluted with an assay buffer to 100 μM. The composition of the buffer is 100 mM HEPES-NaOH (pH 7.4), 1 mM MgCl2, 1 mM DTT, 3 mM TritonX-100.
as §1, with “DPP4” for “CD13”
as §2
4. The microdevice in which the solution was enclosed was incubated at 25° C. for 2 hours, and then the fluorescence intensity of each well was measured with a fluorescence microscope.

[3] = target: T3, ENPP3 (Homo sapiens, UniProt O14638); assay: Measurement of human plasma sample using ENPP probe in microdevice; design: human plasma samples collected from six patients with pancreatic cancer and six healthy subjects; from tissue; host or cells: human plasma (pancreatic cancer patients and healthy subjects)
T3 sequence (O14638 1-875): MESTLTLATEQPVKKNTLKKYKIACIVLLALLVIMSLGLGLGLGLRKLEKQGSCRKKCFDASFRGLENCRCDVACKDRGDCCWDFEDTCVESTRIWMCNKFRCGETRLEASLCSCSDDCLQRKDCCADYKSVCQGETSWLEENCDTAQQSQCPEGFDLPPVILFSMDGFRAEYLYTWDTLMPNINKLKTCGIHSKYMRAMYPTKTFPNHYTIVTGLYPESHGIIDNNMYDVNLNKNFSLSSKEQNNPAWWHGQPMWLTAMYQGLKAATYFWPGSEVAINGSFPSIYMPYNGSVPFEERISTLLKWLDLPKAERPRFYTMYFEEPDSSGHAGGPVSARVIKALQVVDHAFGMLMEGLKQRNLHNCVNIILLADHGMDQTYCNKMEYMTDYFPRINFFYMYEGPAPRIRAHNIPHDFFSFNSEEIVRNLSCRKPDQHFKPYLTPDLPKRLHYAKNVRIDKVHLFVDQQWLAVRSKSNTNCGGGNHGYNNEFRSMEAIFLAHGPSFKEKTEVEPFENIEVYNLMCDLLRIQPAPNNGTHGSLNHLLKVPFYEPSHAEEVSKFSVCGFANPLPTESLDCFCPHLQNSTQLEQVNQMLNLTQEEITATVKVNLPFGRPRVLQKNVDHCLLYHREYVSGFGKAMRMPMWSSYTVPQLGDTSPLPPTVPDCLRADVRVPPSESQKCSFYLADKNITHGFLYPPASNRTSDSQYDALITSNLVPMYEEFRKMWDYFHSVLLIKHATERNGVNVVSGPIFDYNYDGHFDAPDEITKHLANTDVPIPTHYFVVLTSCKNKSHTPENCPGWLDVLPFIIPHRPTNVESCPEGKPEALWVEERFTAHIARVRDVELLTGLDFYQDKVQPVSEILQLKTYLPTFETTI
Protocol: 1. PMUM-dCMP as an ENPP probe was diluted with an assay buffer to 200 μM. The composition of the assay buffer is 100 mM Tris-HCl (pH 9.3), 1 mM MgCl2, 0.5% (w/v) CHAPS.
as §1, with “six” for “30”, “250” for “500”, “ENPP” for “CD13”, “100” for “50”, “500” for “1000”
as §2
4. The microdevice in which the solution was enclosed was incubated at 25° C. for 40 minutes, and then the fluorescence intensity of each well was measured with a fluorescence microscope.
Specifically, in this example, an ROC curve for determination based on the enzyme activity of ENPP determined based on the number of wells with 2500 AU or more is created, and when a threshold is subtracted at the time when the number of wells with 2500 AU or more is 23, the sensitivity is 83% and the specificity is 100% (FIG. 16). It is possible to determine pancreatic cancer by such an ROC curve.

[4] = target: T3, ENPP3; assay: Activity measurement using a purified enzyme of ENPP3 on a plate reader; details: Tris-HCl buffer pH 9.3, 1 mM MgCl2, 0.5% CHAPS, 10 μM probe, ENPP3 9.9 μg/mL
Protocol: The activity measurement of PMUM-dCMP obtained in Synthesis Example 7 was performed using a purified enzyme of ENPP3 on a plate reader.
The assay was performed with a Tris-HCl buffer (pH 9.3) containing 1 mM MgCl2, 0.5% w/w CHAPS, 10 μM PMUM-dCMP, and ENPP3 (recombinant, 9.9 μg/mL).

[5] = threshold: number of wells with 2500 AU or more is 23

T1 sequence (P15144 whole entry): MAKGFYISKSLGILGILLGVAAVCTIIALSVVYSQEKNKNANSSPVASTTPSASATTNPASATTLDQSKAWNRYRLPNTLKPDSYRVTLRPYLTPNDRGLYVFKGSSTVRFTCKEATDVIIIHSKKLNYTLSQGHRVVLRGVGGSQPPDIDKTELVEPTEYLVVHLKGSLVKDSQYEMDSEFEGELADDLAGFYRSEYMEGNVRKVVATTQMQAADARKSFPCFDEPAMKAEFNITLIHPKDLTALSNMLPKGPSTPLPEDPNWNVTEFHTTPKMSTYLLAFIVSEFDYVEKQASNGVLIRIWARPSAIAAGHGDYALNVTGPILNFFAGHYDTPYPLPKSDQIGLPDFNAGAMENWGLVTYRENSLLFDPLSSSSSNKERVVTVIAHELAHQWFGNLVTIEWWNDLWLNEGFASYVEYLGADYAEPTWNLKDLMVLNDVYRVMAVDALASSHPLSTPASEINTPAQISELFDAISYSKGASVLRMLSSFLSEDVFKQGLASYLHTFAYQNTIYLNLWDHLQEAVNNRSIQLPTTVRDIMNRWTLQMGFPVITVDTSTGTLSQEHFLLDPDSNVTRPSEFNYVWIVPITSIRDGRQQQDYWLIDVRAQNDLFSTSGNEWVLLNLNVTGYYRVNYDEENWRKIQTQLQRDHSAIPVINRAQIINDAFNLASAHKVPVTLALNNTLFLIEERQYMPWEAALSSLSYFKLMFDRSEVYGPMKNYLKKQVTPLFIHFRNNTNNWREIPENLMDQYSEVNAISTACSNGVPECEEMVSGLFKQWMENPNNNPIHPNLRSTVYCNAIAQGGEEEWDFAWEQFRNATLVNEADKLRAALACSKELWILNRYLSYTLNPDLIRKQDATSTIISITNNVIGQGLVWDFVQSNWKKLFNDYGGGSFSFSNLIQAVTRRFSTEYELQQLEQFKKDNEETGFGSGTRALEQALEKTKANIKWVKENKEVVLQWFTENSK
T2 sequence (P27487 39-766 limits assumed): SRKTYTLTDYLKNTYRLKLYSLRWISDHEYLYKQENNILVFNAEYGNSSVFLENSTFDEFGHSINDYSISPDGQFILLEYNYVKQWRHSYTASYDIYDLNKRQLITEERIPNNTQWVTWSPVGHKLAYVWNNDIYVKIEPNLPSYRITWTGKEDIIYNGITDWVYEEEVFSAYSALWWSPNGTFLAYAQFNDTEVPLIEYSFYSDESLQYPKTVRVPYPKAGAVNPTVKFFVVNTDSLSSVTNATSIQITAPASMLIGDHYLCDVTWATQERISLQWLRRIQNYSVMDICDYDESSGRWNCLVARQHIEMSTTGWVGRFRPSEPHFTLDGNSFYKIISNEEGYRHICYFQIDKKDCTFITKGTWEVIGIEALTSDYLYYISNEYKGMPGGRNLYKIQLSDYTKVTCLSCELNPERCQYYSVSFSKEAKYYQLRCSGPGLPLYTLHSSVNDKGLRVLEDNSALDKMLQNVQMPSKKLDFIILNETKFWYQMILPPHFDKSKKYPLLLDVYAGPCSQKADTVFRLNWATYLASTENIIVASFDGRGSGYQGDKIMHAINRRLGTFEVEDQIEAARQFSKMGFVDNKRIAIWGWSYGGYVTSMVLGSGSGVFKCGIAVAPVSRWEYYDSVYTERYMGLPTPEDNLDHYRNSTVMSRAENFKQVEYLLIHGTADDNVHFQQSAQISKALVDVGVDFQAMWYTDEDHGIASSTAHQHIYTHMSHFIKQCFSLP

What does the source list for `N=C(N)NCCC[C@H](N)C(=O)Nc1ccc2c(CP(=O)(O)O)cc(=O)oc2c1` [Arg-PMAC]?
Fluorescence intensity of human plasma samples, patient with pancreatic cancer compared with healthy subject (CD13 probe) [1]: a significant difference was observed; AUC of ROC curve for the number of wells in which CD13 is considered to be enclosed [1]: 0.554

With `N[C@@H](CCC(=O)O)C(=O)N1CCC[C@@H]1C(=O)Nc1ccc2c(CP(=O)(O)O)cc(=O)oc2c1` [Glu-Pro-PMAC] as the compound, how does the “Fluorescence intensity of human plasma samples, patient with pancreatic cancer compared with healthy subject (DPP4 probe)” value ([2]; microdevice) read?
Its value is “a significant difference was observed”.

And the “AUC of ROC curve for the ratio of the number of wells belonging to the two peaks (DPP4 considered enclosed)” value ([2]; plasma of 30 patients with pancreatic cancer vs 30 healthy subjects, 25° C. 2 hours)?
Its value is 0.724.

What does the source list for `CSCC[C@H](N)C(=O)Nc1ccc2c(CP(=O)(O)O)cc(=O)oc2c1` [Met-PMAC]?
Fluorescence intensity of human plasma samples, patient with pancreatic cancer compared with healthy subject (CD13 probe) [1]: a significant difference was observed; AUC of ROC curve for the number of wells in which CD13 is considered to be enclosed [1]: 0.619

With `NC1C=CN(C2CC(O)C(COP(=O)(O)Oc3ccc4c(CP(=O)(O)O)cc(=O)oc4c3)O2)C(=O)N1` (centres unmarked) [PMUM-dCMP] as the compound, how does the “Fluorescence intensity of human plasma samples, patient with pancreatic cancer compared with healthy subject (ENPP probe)” value ([3]; microdevice, 100 μM probe, 500 fold dilution plasma) read?
Its value is “a significant difference was observed”.

What about the “Number of wells with fluorescence intensity equal to or higher than 2500 AU, patients with pancreatic cancer compared with healthy subjects” value ([3]; plasma of six patients and six healthy subjects, 100 μM probe, 500 fold dilution plasma, 25° C. 40 minutes) of the same compound?
Its value is “significant increase in the number of wells”.

What about the “Sensitivity of ROC determination of pancreatic cancer” value [3, 5] of the same compound?
Its value is 83%.

And the “Specificity of ROC determination of pancreatic cancer” value [3, 5]?
The value was 100%.

What about the “Fluorescence intensity (FI) on adding ENPP3 compared with adding no ENPP3” value [4] of the same compound?
The value was “remarkable increase in fluorescence intensity”.

Source: US20240287106A1, “Method for Producing Fluorescent Probe Library Using Solid-Phase Extraction and Method of Measuring Enzyme Activity Using Same” (The University of Tokyo, priority 2021, published 2024)
